Publication PMC9964319, “Half-Sandwich Rhodium Complexes with Releasable N-Donor Monodentate Ligands: Solution Chemical Properties and the Possibility for Acidosis Activation” (Pharmaceutics, 2023)
Read-outs that look alike come from different tables or passages of the source.

Assays:
Assay type in all cases: cell-based
[1] = test system: S. aureus 272123 (MRSA); assay: Antibacterial assay, MIC in 96-well plates at different pH
Text: (§1) The antibacterial effect was studied in two Gram-positive and in two Gram-negative strains. The Gram-positive S. aureus ATCC 25923 (ATCC, Manassas, VA, USA) is a methicillin-susceptible reference bacterial strain, while S. aureus 272123 is a clinical isolate and resistant to methicillin and ofloxacin (MRSA), which was given by Prof. Dr. Leonard Amaral (Institute of Hygiene and Tropical Medicine, Lisbon, Portugal). The Gram-negative strains were E. coli ATCC 25922 (ATCC, Manassas, VA, USA), which is sensitive to antibiotics, and E. coli 32313 (provided by the Institute of Clinical Microbiology, University of Szeged, Hungary), which is resistant to different antibiotics (trimethoprim/sulfamethoxazole, gentamicin, ciprofloxacin, and norfloxacin).
(§2) The minimum inhibitory concentrations (MICs) of the compounds were determined in 96-well plates based on the Clinical and Laboratory Standard Institute guidelines. The compounds were diluted in 100 μL of Mueller Hinton broth. Then, an overnight bacterial culture diluted 10,000 times in 100 μL of medium was added to each well, with the exception of the medium control wells. For each strain and each tested compound, four pH values were set (5, 6, 7, and 8). Each sample was triplicated.

[2] = test system: E. coli ATCC 25922 (sensitive); assay: as above
Text: as §1, §2

[3] = test system: S. aureus ATCC 25923 (methicillin-susceptible); assay: as above
Text: as §1, §2

[4] = test system: E. coli 32313 (resistant); assay: as above
Text: as §1, §2

[5] = test system: Colo320 human colon adenocarcinoma cell line (doxorubicin-resistant); assay: MTT assay, cytotoxicity at pH 6 and 7
Description: (§3) All cell culture reagents were obtained from Sigma-Aldrich (Merck KGaA, Darmstadt, Germany) and plasticware from Sarstedt (Nümbrecht, Germany). Human colonic adenocarcinoma cell lines Colo205 (catalog number: ATCC-CCL-222) and its doxorubicin-resistant counterpart Colo320 (catalog number: ATCC-CCL-220.1) were purchased from LGC Promochem (Teddington, UK). The cells were cultured in RPMI 1640 medium supplemented with 10% heat-inactivated fetal bovine serum, 2 mM L-glutamine, 1 mM sodium pyruvate, and 100 mM HEPES buffer, adjusting the pH to 6.0 or 7.0. The cells were incubated at 37 °C in a 5% CO2–95% air atmosphere. The semiadherent human colon cancer cells were detached with Trypsin-Versene solution for 5 min at 37 °C.
(§4) The solutions were freshly prepared prior to measurements (see Section 2.1). […] Firstly, these samples were diluted in complete culture medium; then, two-fold serial dilutions of the compounds were prepared in 100 μL of RPMI 1640, horizontally. The semiadherent colonic adenocarcinoma cells were treated with Trypsin-Versene solution. They were adjusted to a density of 1 × 10^4 cells in 100 μL of RPMI 1640 medium and were added to each well, with the exception of the medium control wells. The final volume of the wells containing compounds and cells was 200 μL. Samples were triplicated. The pH of the medium was adjusted to 6.0 or 7.0.
(§5) The culture plates were incubated at 37 °C for 72 h; at the end of the incubation period, 20 μL of MTT solution (from a stock solution of 5 mg/mL) was added to each well. After incubation at 37 °C for 4 h, 100 μL of SDS solution (10% in 0.01 M HCI) was added to each well, and the plates were further incubated at 37 °C overnight. Cell growth was determined by measuring the optical density (OD) at 540/630 nm with a Multiscan EX ELISA reader (Thermo Labsystems, Cheshire, WA, USA). […] Curves were fitted using GraphPad Prism software (2022, version 9.4.1, Graphpad Software (LLC) d.b.a Dotmatics, San Diego, CA, USA) using the sigmoidal dose–response model (comparing variable and fixed slopes).
(§6) The pH-dependent solution speciation of the selected mixed-ligand complexes is an important feature in the hypothesized mechanism of action, and the modeling of acidosis is necessary for the in vitro anticancer assays. In order to find out the cytotoxicity difference based on the pH of the medium, cytotoxic activity was determined at pH 6 and 7 by MTT assay in two human colon adenocarcinoma cell lines (doxorubicin-sensitive Colo205 and doxorubicin-resistant Colo320). […] The mixed-ligand complexes were prepared prior to the measurements, as was already described in Section 2.1. With this method, the effect of the different counter ions could be avoided, and a more adequate comparison of the mixed-ligand complexes could be conducted.

[6] = test system: Colo205 human colon adenocarcinoma cell line (doxorubicin-sensitive); assay: MTT assay, cytotoxicity at pH 6 and 7
Description: as §3, §4, §5, §6

[7] = Colo320, pH 6, 72 h incubation, read-out: IC50
[8] = Colo320, pH 7, 72 h incubation, read-out: IC50
[9] = Colo205, pH 6, 72 h incubation, read-out: IC50
[10] = Colo205, pH 7, 72 h incubation, read-out: IC50
[11] = Staphylococcus aureus, 24 h, pH 5
[12] = Staphylococcus aureus, 24 h, pH 6
[13] = Staphylococcus aureus, 24 h, pH 7
[14] = Staphylococcus aureus, 24 h, pH 8
[15] = Escherichia coli, ATCC25922, 24 h, pH 5
[16] = Escherichia coli, ATCC25922, 24 h, pH 6
[17] = Escherichia coli, ATCC25922, 24 h, pH 7
[18] = Escherichia coli, ATCC25922, 24 h, pH 8
[19] = Staphylococcus aureus, ATCC25923, 24 h, pH 7
[20] = Staphylococcus aureus, ATCC25923, 24 h, pH 8

| SMILES | IC50 [5, 7] [µM] | IC50 [5, 8] [µM] | IC50 [6, 9] [µM] | IC50 [6, 10] [µM] | MIC [1, 11] [µM] | MIC [1, 12] [µM] | MIC [1, 13] [µM] | MIC [1, 14] [µM] | MIC [2, 15] [µM] | MIC [2, 16] [µM] | MIC [2, 17] [µM] | MIC [2, 18] [µM] | MIC [3, 19] [µM] | MIC [3, 20] [µM] | MIC ([4]; Escherichia coli, 24 h, pH 5) [µM] | MIC ([4]; Escherichia coli, 24 h, pH 6) [µM] | MIC ([4]; Escherichia coli, 24 h, pH 7) [µM] | MIC ([4]; Escherichia coli, 24 h, pH 8) [µM] | other results |
| --- | --- | --- | --- | --- | --- | --- | --- | --- | --- | --- | --- | --- | --- | --- | --- | --- | --- | --- | --- |
| Cc1c(C)c(C)[c-](C)c1C.Clc1ccc(COC(Cn2ccnc2)c2ccc(Cl)cc2Cl)cc1.[Cl-].[Rh+2][O]c1cccc2cccnc12 (racemic) [[RhCp*(8HQH−1)Cl] +econ] | 4.52 ± 0.04 | 3 ± 0.1 | 1.8 ± 0.1 | 3.3 ± 0.1 | – | – | – | – | – | – | – | – | – | – | – | – | – | – | MIC ([1]; pH 5, after one day, read-out: MIC): 12.5 µM; MIC ([1]; pH 6, after one day, read-out: MIC): 6.25 µM; MIC ([1]; pH 7, after one day, read-out: MIC): 3.125 µM; MIC ([1]; pH 8, after one day, read-out: MIC): 3.125 µM; MIC ([2]; E. coli sensitive, pH 5, after one day, read-out: MIC): 25 µM; MIC ([2]; E. coli sensitive, pH 6, after one day, read-out: MIC): 25 µM; MIC ([2]; E. coli sensitive, pH 7, after one day, read-out: MIC): 25 µM; MIC ([2]; E. coli sensitive, pH 8, after one day, read-out: MIC): 25 µM; MIC ([3]; S. aureus sensitive, pH 7, after one day, read-out: MIC): 0.39 µM; MIC ([3]; S. aureus sensitive, pH 8, after one day, read-out: MIC): 0.39 µM; MIC ([4]; E. coli resistant, pH 5, after one day, read-out: MIC): 50 µM; MIC ([4]; E. coli resistant, pH 6, after one day, read-out: MIC): >100 µM; MIC ([4]; E. coli resistant, pH 7, after one day, read-out: MIC): >100 µM; MIC ([4]; E. coli resistant, pH 8, after one day, read-out: MIC): 50 µM; IC50 ([6]; Colo205, pH 6, 72 h incubation, listed as [RhCp*(8HQH−1)(H2O)]^+ with econazole, read-out: IC50): ~1.8 µM |
| Oc1cccc2cccnc12 [Complex 8HQ, 8-hydroxyquinoline, reference compound] | – | – | – | – | 100 | 6.25 | 6.25 | 6.25 | > 100 | > 100 | > 100 | > 100 | 25 | 25 | > 100 | > 100 | > 100 | > 100 | – |
| c1ccncc1 [Py, pyridine, reference compound] | – | – | – | – | > 100 | > 100 | > 100 | > 100 | > 100 | > 100 | > 100 | > 100 | > 100 | > 100 | > 100 | > 100 | > 100 | > 100 | MIC ([1]; Staphylococcus aureus, read-out: MIC (no antibacterial effect)): > 100 µM; MIC ([2]; Escherichia coli, ATCC25922, read-out: MIC (no antibacterial effect)): > 100 µM; MIC ([3]; Staphylococcus aureus, ATCC25923, read-out: MIC (no antibacterial effect)): > 100 µM; MIC ([4]; Escherichia coli, read-out: MIC (no antibacterial effect)): > 100 µM; IC50 ([5]; Homo sapiens, COLO 320, 72 h, pH 6): > 100 µM; IC50 ([5]; Homo sapiens, COLO 320, 72 h, pH 7): > 100 µM; IC50 ([6]; Homo sapiens, COLO 205, 72 h, pH 6): > 100 µM; IC50 ([6]; Homo sapiens, COLO 205, 72 h, pH 7): > 100 µM |
| CC1=C(C)C(C)C(C)=C1C.Cn1ccnc1.Oc1cccc2cccnc12.[Rh+3] [[RhCp*(8HQH−1)(mim)]^+] | 6 ± 0.1 | 6.1 ± 0.2 | 7 ± 0.4 | 7.2 ± 0.2 | – | – | – | – | – | – | – | – | – | – | – | – | – | – | – |
| CC1=C(C)C(C)C(C)=C1C.[Rh+3].c1ccncc1.c1cnc2c(c1)ccc1cccnc12 [[RhCp*(phen)(Py)]^2+] | 83.6 ± 4.1 | > 100 | > 100 | > 100 | – | – | – | – | – | – | – | – | – | – | – | – | – | – | – |
